Results as given in article PMC11466185, “Mechanisms and efficacy of small molecule latency-promoting agents to inhibit HIV reactivation ex vivo” (JCI Insight, 2024).

How the values were obtained:
[1] = tested on: HIV transcripts (TAR, LLTR, Pol, PolyA, TatRev); test: Cell-associated HIV transcripts (RT-ddPCR) 6 days after anti-CD3/CD28 activation of PBMCs from ART-suppressed PWH; assay type: cell-based; settings: DMSO+CD3/28 = 1, Fig 4B, C and D
Method: Next, we evaluated the ability of the candidate LPAs to sustain the inhibitory effects during a prolonged ex vivo culture. To this end, PBMCs were cultured in the presence of individual drugs in DMSO or in DMSO alone as control, activated (anti-CD3/CD28), and harvested after 6 days. […] However, we decided to test the drug on day 6 because extra cells were available from some study participants.
Each drug was tested in PBMCs from at least 6 ART-suppressed study participants (except for KRIBB11, n = 5). PBMCs were aliquoted into wells at 6 × 10^6 cells/well. After activation, the cells were cultured with antiretrovirals in the presence of individual drugs in DMSO or DMSO alone as control. All conditions were tested in the presence of CD3/28 T cell–activating beads, except for the unactivated DMSO condition. After 6 days, total cellular RNA was extracted, and the progression through different stages of HIV transcription was quantified by measuring the levels of initiated (TAR), 5′ elongated (LLTR), midtranscribed/unspliced (Pol), completed (PolyA), and multiply spliced (TatRev) HIV transcripts. (A) The levels of all HIV transcripts were normalized to 1 μg of total cellular RNA and expressed as a percentage of the activated DMSO control (% of activated DMSO). Medians are shown as well as the individual values per study participant in different colors. (B–D) The effect of each drug on HIV transcriptional progression after activation was analyzed by the ratio of one HIV transcript to another. Ratios are independent of HIV infection frequency or normalization to cell numbers. Shown are the proportion of (B) all HIV transcripts that are elongated (LLTR/TAR), (C) elongated HIV transcripts that are completed (PolyA/LLTR), and (D) completed transcripts that are multiply spliced (TatRev/PolyA). Medians and IQR are presented, along with the individual values per study participant in different colors. P values were calculated using Wilcoxon’s signed-rank test: *P < 0.05.
PBMCs were isolated from fresh venous blood from 16 ART-suppressed HIV-infected study participants using Ficoll density gradient centrifugation. The cells were seeded at 6 × 10^6 cells/well and cultured with antiretrovirals (nevirapine and indinavir) to prevent new infection. On the next day, PBMCs were activated with anti-CD3/CD28–coated beads (Invitrogen) in the presence of 20 U/mL IL-2 and individual drugs in DMSO or DMSO alone as a control. Since we were limited in the PBMC yield per study participant, different study participants were used for different experiments (such as the initial screen, dose response, different time points, and studies in activated vs. unstimulated cells). In addition, the yields of PBMCs were sometimes insufficient to test all drugs for a given question or experiment.
For quantification of cell-associated HIV transcripts, PBMCs were harvested either after 24 hours or after 6 days. The cell viabilities were measured by trypan blue staining; then the cells were pelleted by centrifuging at 300g for 6 minutes and stored at –80°C. For quantification of virion-associated HIV RNA, cell culture supernatant was collected from 6 × 10^6 PBMCs that were treated and activated for 6 days as described above. Residual cells and cellular debris were subsequently removed from the supernatant by differential centrifugation (300g for 6 minutes, then 20,000g for 10 minutes), and the supernatant was stored at –80°C.
Total cellular DNA and RNA were extracted in parallel using Trireagent (Molecular Research Center) according to the manufacturer’s instructions, except for study participants 2147 and 2461 (Figure 4), for whom DNA and RNA were extracted using the QIAGEN AllPrep DNA/RNA/miRNA Universal Kit with on-column DNase I treatment of the RNA and the manufacturer’s modification to enhance recovery of short transcripts.

PBMCs = test: Total number of live cells (proliferation) by trypan blue staining at day 6; assay type: cell-based, human; settings: day 6; Figure 6A
Method: Some of our candidate LPAs can block the effects of T cell activation, which could affect T cell proliferation. Therefore, we evaluated the extent to which variations in the level of infected cells may contribute to reductions in different HIV RNA transcripts. We measured the total number of viable cells (as a measure of proliferation) and the conserved U3-U5 LTR HIV DNA region (as a measure of total infection frequency) at day 6.
(A) After 6 days, the total number of live cells was measured by trypan blue staining and then normalized to the levels of the activated DMSO (% of activated DMSO). All conditions were tested in the presence of CD3^+/CD28^+ T cell–activating beads, except for the unactivated DMSO condition. Bars indicate medians, and different colors indicate individual study participants. Comparisons were performed using Wilcoxon’s signed-rank test. (B) Total cellular DNA was extracted, and the levels of U3-U5 HIV DNA were measured to quantify infection frequency at 6 days. HIV DNA levels were normalized to copies per 10^6 cells using the input of cellular DNA (assuming 1 μg of total DNA corresponds to 160,000 cells) and then normalized to the activated DMSO control (% of activated DMSO). Bars indicate medians, and different colors indicate individual study participants.

Molecule | LLTR/TAR ([1]; participant 150b) | PolyA/LLTR ([1]; participant 150b) | TatRev/PolyA ([1]; participant 150b) | LLTR/TAR ([1]; participant 1379) | PolyA/LLTR ([1]; participant 1379) | LLTR/TAR ([1]; participant 2027) | PolyA/LLTR ([1]; participant 2027) | TatRev/PolyA ([1]; participant 2027) | LLTR/TAR ([1]; participant 2147a) | PolyA/LLTR ([1]; participant 2147a) | TatRev/PolyA ([1]; participant 2147a) | LLTR/TAR ([1]; participant 2161) | PolyA/LLTR ([1]; participant 2161) | LLTR/TAR ([1]; participant 2256) | PolyA/LLTR ([1]; participant 2256) | LLTR/TAR ([1]; participant 2461) | PolyA/LLTR ([1]; participant 2461) | LLTR/TAR ([1]; participant 5557) | PolyA/LLTR ([1]; participant 5557) | LLTR/TAR ([1]; participant 2750) | further results
CN1CC[C@H](c2c(O)cc(O)c3c(=O)cc(-c4ccccc4Cl)oc23)[C@H](O)C1 [alvocidib] | 0.5959 | 1.023 | 0.12 | 0.8323 | 0.9327 | 0.4309 | 0.9713 | 0.1413 | 0.3521 | 0.4486 | 0.2041 | 1.064 | 0.55 | 0.6179 | 0.6868 | 1.513 | 1.443 | 0.4901 | 0.9442 | – | TatRev/PolyA ([1]; participant 2256): 0.617; LLTR/TAR ([1]; participant 2747): 0
mithramycin A | 3.173 | 0.3062 | 1.15 | 7.408 | 0.07562 | – | – | – | – | – | – | – | – | 1.969 | 0 | – | – | 0.2056 | 46.0561 | 4.292 | TatRev/PolyA ([1]; participant 1379): 0; LLTR/TAR ([1]; participant 1713): 1.88; PolyA/LLTR ([1]; participant 1713): 1.25; TatRev/PolyA ([1]; participant 1713): 0; LLTR/TAR ([1]; participant 2147b): 0.4766; PolyA/LLTR ([1]; participant 2147b): 0.7007; TatRev/PolyA ([1]; participant 2147b): 0; PolyA/LLTR ([1]; participant 2750): 1.638; TatRev/PolyA ([1]; participant 2750): 0.3964; TatRev/PolyA ([1]; participant 5557): 3.456; Total live cell numbers (proliferation) compared with activated DMSO (in words) (PBMCs): significantly lower
CCc1cnn2c(NCc3ccc[n+]([O-])c3)cc(N3CCCC[C@H]3CCO)nc12 [dinaciclib] | 0.1874 | 1.735 | 1.49 | – | – | 0.2578 | 0.8564 | 0.1946 | 2.005 | 0.4014 | 0.7191 | 1.155 | 1.48 | – | – | 2.038 | 3.944 | – | – | 1.778 | TatRev/PolyA ([1]; participant 2161): 1.061; PolyA/LLTR ([1]; participant 2750): 2.886; TatRev/PolyA ([1]; participant 2750): 0.2646
